Assay results as given in patent US20050287552A1, “Carbohydrate encapsulated nanoparticle based affinity mass spectrometry” (Academia Sinica, Office of Public Affairs (Technology …, priority 2003, published 2005).

Target: Con A (Canavalia ensiformis, UniProt P02866)
Test: SPR competition binding assay for Con A
Conditions: Con A tetramer 0.5 uM, pre-incubated 1 hr with inhibitor
Method: A self-assembled monolayer composed of 20% mannopyranoside ligand and 80% thiobutanol mixture was generated on a J1 biosensor chip (See FIG. 9). In particular, immobilization of ligand to the biosensor chip was preformed in BIAcore 3000 instrument. A mixture of 4-mercapto-1-butanol (Ligand A) and 5-thiopentyl α-D-mannopyranoside (Ligand B) in deionized water was injected into a flow cell with the J1 biochip.
Next, the binding affinity of Con A for this chip was determined by titration with a series of Con A concentrations to generate multiple SPR curves. In particular, Con A was dissolved in sample buffer (1.0 mL, 20 mM HEPES, pH 7.0, 90 mM NaCl with 1 mM MnCl2 and CaCl2) and then filtered by a syringe. Con A solution (50 μL) was injected over immobilized biosensor surface and allowed 260 seconds for dissociation and then followed by regeneration buffer. A set of SPR response curves was obtained after different concentrations of Con A solution were applied (See FIG. 10A, showing curves for 6, 3, 1.5, 0.38, 0.19 uM of Con A (top to bottom)).
Competition assays were then conducted. […] The mixture (50 uL) was then injected and the flow rate was controlled at 60 uL/minute. The equilibrium binding response values was collected at equilibrium binding portion of the curve (260 seconds post-injection). […]

Question: For α-D-methyl-mannopyrannoside [αMeMan], which Ki is on record?
Answer: Its Ki is 200 µM.
